Data on 49 compounds can be found in patent US10703764B2, “Benzopiperazine compositions as BET bromodomain inhibitors” (FORMA Therapeutics, Inc., priority 2013, dated 2020).

Structures are written as SMILES. Where only a bound is given, the exact number is not on record here.

The target in test [1] is T1, BRD4 BD2 (Homo sapiens, UniProt O60885).
T1 construct: made in house
Description: AlphaScreen binding assay, BRD4 Bromodomain 2. Summed up: (§1)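 Compound dilution series were mixed with His-tagged BRD4 bromodomain and biotinylated tetra-acetylated H4 (1-21) peptide at pH 7.3 (BD1 and peptide at 50 nM, BD2 and peptide at 100 nM). Donor and acceptor beads were then added, and plates were equilibrated at least 1 h before reading. IC50 values were fitted with a four-parameter logistic model.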
Background: Alpha assays give light when donor and acceptor beads are brought close together.

Test [2] has as its target T2, BRD4 BD1 (Homo sapiens, UniProt O60885).
T2 construct: made in house
Description: AlphaScreen binding assay, BRD4 Bromodomain 1. The gist of the method:
as §1

As to `CC(=O)N1c2cnc(-c3ccc(S(C)(=O)=O)cc3)cc2N(C(=O)OC(C)C)C[C@@H]1C` [Example I-58, isopropyl (S)-4-acetyl-3-methyl-7-(4-(methylsulfonyl)phenyl)-3,4-dihydro pyrido[3,4-b]pyrazine-1 (2H)-carboxylate], the results for the IC50 in test [1] and in test [2] were over 0.5 µM and 1 to 10 µM, respectively.

In the case of `CC(=O)N1c2ccccc2N(S(=O)(=O)c2ccc(C)cc2)C[C@@H]1C` [Example I-940], the IC50 is over 0.5 µM in test [1] and over 10 µM in test [2].

For the compound `CC(=O)N1c2ccccc2N(C(=O)c2ccc3c(c2)OCO3)C[C@@H]1C` [Example I-701], the IC50 in test [1] is over 0.5 µM; in test [2], over 10 µM.

With `CC(=O)N1c2ccc(-c3ccc(S(C)(=O)=O)cc3)cc2N(C(=O)c2ccc(N)cc2)C[C@@H]1C` [Example I-986], the half-maximal inhibitory concentration (IC50) is over 0.5 µM in test [1] and over 10 µM in test [2].

`COC(=O)N1c2ccc(-c3cnn(C4CNC4)c3)cc2N(C(=O)Oc2cccnc2)C[C@@H]1C` [Example I-1295]: the IC50 was in the range of 0.05 to 0.5 µM in test [1] and 1 to 10 µM in test [2].

Turning to `CC(C)OC(=O)N1C[C@H](C)N(C(=O)C2CC2)c2ccc(-c3cnn(CC#N)c3)cc21` [Example I-622], the IC50 in test [1] was over 0.5 µM; in test [2], 1 to 10 µM.

As to `CC(=O)N1c2ccc(-c3cnn(CC(=O)N(C)C)c3)cc2N(C(=O)C2CC2)C[C@@H]1C` [Example I-683], the half-maximal inhibitory concentration (IC50) fell in the range of 0.05 to 0.5 µM in test [1] and 1 to 10 µM in test [2].

With `CC(=O)N1c2ccccc2N(C(=O)c2cc3ccncc3s2)C[C@@H]1C` [Example I-775], the IC50 was over 0.5 µM in test [1] and over 10 µM in test [2].

Turning to `CC(=O)N1c2ccc(-c3cnn(CCO)c3)cc2N(C(=O)C2CC2)C[C@@H]1C` [Example I-342], the IC50 lay within 0.05 to 0.5 µM in test [1] and 1 to 10 µM in test [2].

Regarding `CC(=O)N1c2ccc(-c3cncn3C)cc2N(C(=O)c2ccco2)C[C@@H]1C` [Example I-389], the IC50 was 0.05 to 0.5 µM in test [1] and over 10 µM in test [2].

For `CC(=O)N1c2ccc(NCc3ccccc3)cc2N(C(=O)c2ccco2)C[C@@H]1C` [Example I-989], the IC50 in test [1] was 0.05 to 0.5 µM; in test [2], 1 to 10 µM.

For the compound `COC(=O)N1c2ccc(-c3cnn(C4CNC4)c3)cc2N(C(=O)OC(C)C)C[C@@H]1C` [Example I-358], the results for the IC50 in test [1] and in test [2] were 0.05 to 0.5 µM and 1 to 10 µM, respectively.

As for `CC(C)OC(=O)N1C[C@H](C)N(C(C)C2CC2)c2ccc(-c3cnn(C4CNC4)c3)cc21` (some centres unmarked) [Example I-357], the IC50 in test [1] lay within 0.05 to 0.5 µM; in test [2], 1 to 10 µM.

With `CC(=O)N1c2ccc(-c3cccc(-n4cccn4)c3)cc2N(C(=O)c2ccco2)C[C@@H]1C` [Example I-853], the IC50 in test [1] was under 0.05 µM; in test [2] it was 0.1 to 1 µM.

`CC(=O)N1c2ccc(-c3ccc(S(C)(=O)=O)cc3)cc2N(C(=O)c2cn(C)cn2)C[C@@H]1C` [Example I-881]: the IC50 in test [1] is over 0.5 µM; in test [2], over 10 µM.

In the case of `CC(=O)N1c2ccccc2N(C(=O)Cc2ccccc2)C[C@@H]1C` [Example I-695], the results for the IC50 in test [1] and in test [2] were over 0.5 µM and over 10 µM, respectively.

Turning to `CC(=O)N1c2ccccc2N(C(=O)COc2ccccc2)C[C@@H]1C` [Example I-712], the concentration for half-maximal inhibition (IC50) in test [1] was over 0.5 µM; in test [2] it was over 10 µM.

Take `CC(=O)N1c2ccc(-c3ccc(S(C)(=O)=O)cc3)nc2N(C(=O)OC(C)C)C[C@@H]1C` [Example I-254]: the IC50 is over 0.5 µM in test [1] and 1 to 10 µM in test [2].

As for `CC(=O)N1c2ccc(-c3cnn(C4CC4)c3)cc2N(C(=O)Oc2ccc(C#N)cc2Cl)C[C@@H]1C` [Example I-528], the IC50 lay within 0.05 to 0.5 µM in test [1] and 1 to 10 µM in test [2].

With `COc1cncc(-c2ccc3c(c2)N(C(=O)c2ccco2)C[C@H](C)N3C(C)=O)c1` [Example I-835], the IC50 in test [1] fell in the range of 0.05 to 0.5 µM; in test [2] it was 1 to 10 µM.

As for `CC(=O)N1c2ccc(-c3ccc(S(C)(=O)=O)cc3)cc2N(C(=O)c2ccc(C(F)(F)F)o2)C[C@@H]1C` [Example I-887], the IC50 is 0.05 to 0.5 µM in test [1] and over 10 µM in test [2].

On to `CC(=O)N1c2ccc(-c3ccc(Cl)cc3)cc2N(C(=O)c2ccco2)C[C@@H]1C` [Example I-805], for which the IC50 in test [1] fell in the range of 0.05 to 0.5 µM; in test [2] it was 1 to 10 µM.

As to `CC(=O)N1c2ccc(-c3ccc(S(C)(=O)=O)cc3)cc2N(C(=O)N(C)C)C[C@@H]1C` [Example I-248], the figures for the IC50 in test [1] and in test [2] were 0.05 to 0.5 µM and over 10 µM, respectively.

On to `COC(=O)N1c2ccc(-c3cnn(C(C)(C)CO)c3)cc2N(C(=O)Oc2cccnc2)C[C@@H]1C` [Example I-1285], for which the IC50 in test [1] was in the range of 0.05 to 0.5 µM; in test [2] it was 1 to 10 µM.

Regarding `COc1ccc(S(=O)(=O)N2C[C@H](C)N(C(C)=O)c3ccccc32)c(C)c1` [Example I-960], the half-maximal inhibitory concentration (IC50) in test [1] was over 0.5 µM; in test [2], over 10 µM.

Take `C[C@H]1CN(C(=O)OC2COC2)c2cc(-c3cnn(C4CC4)c3)ccc2N1C(=O)C1CC1` [Example I-998]: the IC50 in test [1] is over 0.5 µM; in test [2], 1 to 10 µM.

`COc1ccc(OC)c(S(=O)(=O)N2C[C@H](C)N(C(C)=O)c3ccccc32)c1` [Example I-930]: the IC50 was over 0.5 µM in test [1] and over 10 µM in test [2].

For `COC(=O)N1c2ccc(-c3ccc(S(=O)(=O)CCN)cc3)cc2N(C(=O)OC(C)C)C[C@@H]1C` [Example I-488], the values for the IC50 in test [1] and in test [2] were 0.05 to 0.5 µM and 0.1 to 1 µM, respectively.

Take `CC(=O)N1c2ccc(-c3ccc(S(C)(=O)=O)cc3)cc2N(C(=O)c2ncc[nH]2)CC1C` (centres unmarked) [Example I-982]: the values for the IC50 in test [1] and in test [2] were over 0.5 µM and 1 to 10 µM, respectively.

Regarding `COC(=O)N1c2ccc(-c3cnn(C4CCNCC4)c3)cc2N(C(=O)Oc2ccccn2)C[C@@H]1C` [Example I-1333], the IC50 in test [1] is 0.05 to 0.5 µM; in test [2], 1 to 10 µM.

As for `COC(=O)N1c2ccc(-c3cnn(CCS(C)(=O)=O)c3)cc2N(C(=O)Oc2cccnc2)C[C@@H]1C` [Example I-1280], the IC50 in test [1] was in the range of 0.05 to 0.5 µM; in test [2], 1 to 10 µM.

For the compound `CC(=O)N1c2ccc(-c3ccc(S(C)(=O)=O)cc3)cc2N(C(=O)c2ccco2)CC1CF` (centres unmarked) [Example I-7, 1-(2-(fluoromethyl)-4-(furan-2-carbonyl)-6-(4-(methylsulfonyl)phenyl)-3,4-dihydroquinoxalin-1(2H)-yl)ethan-1-one], the concentration for half-maximal inhibition (IC50) was over 0.5 µM in test [1] and over 10 µM in test [2].

Consider `CC(=O)N1c2ccccc2N(C(=O)c2cc3cc(Cl)ccc3o2)C[C@@H]1C` [Example I-759], for which the half-maximal inhibitory concentration (IC50) in test [1] is over 0.5 µM; in test [2], over 10 µM.

Regarding `CC(=O)N1c2ccc(-c3cc(F)cc(F)c3)cc2N(C(=O)c2ccco2)C[C@@H]1C` [Example I-869], the IC50 in test [1] was in the range of 0.05 to 0.5 µM; in test [2], 1 to 10 µM.

Regarding `COC(=O)N1c2ccc(-c3ccc4c(c3)CCN4S(C)(=O)=O)cc2N(C(=O)Oc2ccccn2)C[C@@H]1C` [Example I-1329], the IC50 was 0.05 to 0.5 µM in test [1] and 1 to 10 µM in test [2].

Regarding `CC(=O)N1c2ccc(-c3cnc4ccccc4c3)cc2N(C(=O)c2ccco2)C[C@@H]1C` [Example I-823], the IC50 in test [1] was 0.05 to 0.5 µM; in test [2], 1 to 10 µM.

Take `CC(=O)N1c2ccc(-c3cnn(C4CC4)c3)nc2N(C(=O)NC(C)C)C[C@@H]1C` [Example I-193, (S)-1-acetyl-6-(1-cyclopropyl-1H-pyrazol-4-yl)-N-isopropyl-2-methyl-2,3-dihydropyrido[2,3-b]pyrazine-4(1H)-carboxamide]: the figures for the concentration for half-maximal inhibition (IC50) in test [1] and in test [2] were over 0.5 µM and over 10 µM, respectively.

As to `CC(=O)N1c2ccc(-c3cnn(C4CC4)c3)nc2N(C(=O)OC(C)C)C[C@@H]1C` [Example I-255], the IC50 in test [1] fell in the range of 0.05 to 0.5 µM; in test [2] it was 1 to 10 µM.

`C[C@H]1CN(C(=O)c2ccco2)c2cc(-c3ccc(S(C)(=O)=O)cc3)ccc2N1C(=O)C(F)(F)F` [Example I-361]: the IC50 in test [1] was over 0.5 µM; in test [2] it was over 10 µM.

For `CC(=O)N1c2ccc(-c3ccc(S(C)(=O)=O)cc3)cc2N(C(=O)NCc2ccco2)C[C@@H]1C` [Example I-980], the IC50 in test [1] was over 0.5 µM; in test [2], over 10 µM.

Regarding `CC(=O)N1c2ccc(-c3ccc(S(C)(=O)=O)cc3)cc2N(C(=O)c2ccc(S(=O)(=O)N(C)C)o2)C[C@@H]1C` [Example I-983], the half-maximal inhibitory concentration (IC50) in test [1] is over 0.5 µM; in test [2] it was over 10 µM.

On to `CC(=O)N1c2ccc(-c3cccc(N(C)C)c3)cc2N(C(=O)c2ccco2)C[C@@H]1C` [Example I-870], for which the IC50 fell in the range of 0.05 to 0.5 µM in test [1] and 0.1 to 1 µM in test [2].

Regarding `CC(=O)N1c2ccccc2N(C(=O)[C@H](C)c2ccccc2)C[C@@H]1C` [Example I-715], the values for the IC50 in test [1] and in test [2] were over 0.5 µM and over 10 µM, respectively.

Consider `COC(=O)N1c2ccc(-c3ccc(N4CCCS4(=O)=O)cc3)cc2N(C(=O)C2CC2)C[C@@H]1C` [Example I-457], for which the IC50 in test [1] fell in the range of 0.05 to 0.5 µM; in test [2] it was 1 to 10 µM.

For the compound `CC(=O)N1c2ccc(-c3ccc(S(C)(=O)=O)cc3)cc2N(C(=O)c2cccc(N)c2)C[C@@H]1C` [Example I-985], the IC50 is 0.05 to 0.5 µM in test [1] and over 10 µM in test [2].

On to `CC(=O)N1c2ccc(-c3cnn(C4COC4)c3)cc2N(C(=O)[C@@H]2CC2(Cl)Cl)C[C@@H]1C` (single isomer, unassigned) [Example I-112], for which the results for the IC50 in test [1] and in test [2] were 0.05 to 0.5 µM and 1 to 10 µM, respectively.

Turning to `CC(=O)N1c2ccccc2N(Cc2cccc(C)c2)C[C@@H]1C` [Example I-893], the IC50 is over 0.5 µM in test [1] and over 10 µM in test [2].

For the compound `CC(=O)N1c2ccc(-c3cnn(C4COC4)c3)cc2N(C(=O)C(C)(C)Cl)C[C@@H]1C` [Example I-115, (S)-1-(4-acetyl-3-methyl-7-(1-(oxetan-3-yl)-1H-pyrazol-4-yl)-3,4-dihydroquinoxalin-1(2H)-yl)-2-chloro-2-methylpropan-1-one], the concentration for half-maximal inhibition (IC50) in test [1] is over 0.5 µM; in test [2], over 10 µM.

As to `CC(=O)N1c2ccccc2N(C(=O)Cc2cccs2)C[C@@H]1C` [Example I-731], the 50% inhibitory concentration (IC50) in test [1] is over 0.5 µM; in test [2], over 10 µM.

As usually defined, the IC50 is the midpoint of a concentration-inhibition curve. A low value points to greater potency.
